According to patent US7045324B2, “Tocopherol associated protein and uses thereof” (Research Development Foundation, priority 2002, dated 2006):

Assays:
[1] = system: MDA-MB-435 human breast cancer cells; experiment: Apoptosis (DAPI staining) of TAP siRNA transfected MDA-MB-435 cells treated with tocopherol-based compounds; type: cell-based; settings: TAP siRNA for 6 days, then compound for 2 days (α-TEA 20 μg/ml, VES 20 μg/ml, δT3 5 μg/ml)
Description: MDA-MD-435 cells at 13.5×10^6/55 cm^2 cell culture dish (100 mm×20 mm; catalog # 430293, Corning Inc., Corning, N.Y.) were transiently transfected with in vitro transcribed TAP siRNA (Silencer siRNA Construction Kit, Ambion) using siPORT Lipid following company instructions (catalog # 4505, Ambion, Austin, Tex.). Cells were incubated overnight in culture media, then washed two times with non-supplemented regular MEM media. Next, the cells were incubated overnight in the presence of siRNA/siPORT Lipid [[…]/16 μl or 16 μl siPORT lipid only (as control)] in 5 ml of serum free media (OPTI-MEMI, catalog # 31985–070, Gibco). SiRNA/siPORT Lipid complex was generated by two steps: 1) 16 μl of siPORT lipid was incubated with 60 μl of OPTI-MEMI media for 30 minutes at room temperature; and 2) 60 μl of siPORT Lipid in OPTI-MEMI was then incubated for 20 minutes with 500 μl of diluted TAP siRNA [or 500 μl media as control (5 μl of 10 μl TAP siRNA in 500 μl of OPTI-MEMI media)]. The transfected cells were then split into 12 wells at 1.5×10^5 cells/well for apoptosis and 55 cm^2 dish at 3.5×10^6 cells/dish for Western immunoblot analyses.
The cells in 55 cm^2 dishes were incubated for 8 hours with culture media followed by treatment with 20 μg/ml of α-TEA in 2% serum treatment media for 15 hours. Cells were collected and fractionated, and the lysates were analyzed for TAP protein levels by Western immunoblotting (FIG. 13A). The cells plated in 12-well plates were incubated overnight in culture media followed by treatment with 20 μg/ml of α-TEA, 20 μg/ml of VES, and 5 μg/ml of RRR-δ-tocotrienol (dt3) and cultured for 2 days. Apoptosis was evaluated by DAPI staining (FIG. 13B).
For example, cells transiently transfected with TAP siRNA for 6 days and then treated with α-TEA, VES, or δT3 were inhibited from induction of apoptosis by approximately 60% in comparison to control cells cultured with the three compounds for two days.

[2] = system: tumor cells, normal cells, cells of epithelial or immune origin; settings: cited from earlier work
[3] = system: MDA-MB-435 cells; experiment: Apoptosis (nuclear condensation and fragmentation) of MDA-MB-435 cells transfected with antisense oligomers to TAP; type: cell-based, human; settings: antisense to N-terminal region of TAP (TAP-38 and TAP-46)
Description: Apoptosis was determined by examination of nuclear condensation and fragmentation.
Transient transfection of MDA-MB-435 cells with antisense oligomers to the N-terminal region of TAP (interferes with TAP-38 as well as TAP-46 transcription) blocked the ability of tocopherol compounds, vitamin E succinate and compound #1, to induce apoptosis, showing that TAP-38 and TAP-46 are involved in the ability of vitamin E compounds to inhibit tumor cell growth (FIG. 10).

[4] = system: MDA-MB-435 cells; experiment: PARP cleavage and c-Jun phosphorylation in MDA-MB-435 cells transfected with antisense or sense oligomers to TAP; type: cell-based, human
Excerpt: Antisense oligomers to TAP (both TAP-38 and TAP-46), showing that the induction of apoptosis with vitamin E succinate or compound #1 [2,5,7,8-tetramethyl-(2R-(4R,8R,12-trimethyltridecycl) chroman-6-yloxy) acetic acid] to involve tocopherol associated protein.

[5] = system: MDA-MB-435 human breast cancer cells; experiment: Apoptosis of MDA-MB-435 cells transiently transfected with TAP-38 or TAP-46 cDNA and treated with compound; type: cell-based; settings: 20 micrograms/ml compound
Excerpt: Transient transfection of MDA-MB-435 human breast cancer cells with either TAP-38 or TAP-46 enhanced the ability of tocopherol compound #1 [2,5,7,8-tetramethyl-(2R-(4R,8R,12-trimethyltridecycl) chroman-6-yloxy) acetic acid] to induce apoptosis (FIG. 9).

Row | SMILES | inhibition of induction of apoptosis by TAP siRNA in comparison to control cells [1] | ability to induce apoptosis in cells transfected with antisense oligomers to TAP, vs sense oligomers [3] | cleavage of poly ADP-ribose polymerase (PARP) in compound-treated cells with antisense vs sense oligomers to TAP [4] | phosphorylation of c-Jun in compound-treated cells with antisense vs sense oligomers to TAP [4] | other results
1 | Cc1c(C)c2c(c(C)c1OCC(=O)O)CC[C@@](C)(CCC[C@H](C)CCC[C@H](C)CCCC(C)C)O2 [α-TEA] | approximately 60% | – | – | – | –
2 | CC(C)=CCC/C(C)=C/CC/C(C)=C/CC[C@]1(C)CCc2cc(O)cc(C)c2O1 [δT3, RRR-δ-tocotrienol] | approximately 60% | – | – | – | –
3 | Cc1c(C)c2c(c(C)c1O)CC[C@@](C)(CCC[C@H](C)CCC[C@H](C)CCCC(C)C)O2 [RRR-α-tocopherol] | – | – | – | – | antiproliferative and proapoptotic activity ([2]; cells of epithelial or immune origin): neither antiproliferative nor proapoptotic biological activity
4 | Cc1c(C)c2c(c(C)c1OC(=O)CCC(=O)O)CC[C@@](C)(CCC[C@H](C)CCC[C@H](C)CCCC(C)C)O2 [VES, RRR-α-tocopheryl succinate] | approximately 60% | blocked | blocked the cleavage | inhibited the phosphorylation | apoptotic inducing effects on normal cells ([2]; normal cells): no apoptotic inducing effects on normal cells; apoptosis of tumor cells ([2]; tumor cells): induces tumor cells to undergo apoptosis
5 | Cc1c(C)c2c(c(C)c1OCC(=O)O)CC[C@@](C)(CCC[C@H](C)CCC[C@H](C)CCCC(C)C)O2 [compound #1, 2,5,7,8-tetramethyl-(2R-(4R,8R,12-trimethyltridecycl)chroman-6-yloxy) acetic acid] | – | blocked | blocked the cleavage | inhibited the phosphorylation | ability to induce apoptosis in cells transfected with either TAP-38 or TAP-46, vs vector control [5]: enhanced
